Data as given in US5336673A, “3-substituted cephem compounds” (priority 1990, dated 1994).
In brackets after ≈: the same amount, converted by molar mass. Like-named read-outs stand apart in the source and are kept apart here.

Assays:
[1] = tested on: Staphylococcus aureus 503; assay: Antibacterial activity, MIC by Agar dilution method, standard test strain 6; type: cell-based; details: 10^7 CFU/ml, 37° C., 18 hours
Method: (§1) The antibacterial activity was determined by an Agar dilution method as described below.
(§2) That is, the two-fold serial dilutions of the antibacterial compounds (1000 μg compound/ml) were prepared and dispersed in Muller Hinton Agar in a petri dish to a concentration of 100~0.002 μg/ml. The culture broths of standard test strains were inoculated on the medium to a concentration 10^7 CFU/ml, and incubated at 37° C. for 18 hours. The concentration of compounds(I) at which the strains were not grown was regarded as minimum inhibition concentration (MIC).
(§3) The results of antibacterial activity test of the representative examples of the compound (I) against 20 standard test strains shown in terms of MIC were indicated in Table 1.
6. Staphylococcus aureus 503

Acute toxcity test = details: in vivo, male ICR-mouse, after 1 week
Method: Further, in order to illustrate the usefulness of the compounds (I) as a drug, compounds of Examples 12, 18 and 36 were tested for acute toxcity by using 4 weeks-old male ICR-mouse as a test animal.
the compounds were dissolved in physiological saline and phosphate buffered solution (pH 7.0), or if they were […], suspended in carboxymethylcellulose or gum Arabic and then mixed with phosphate buffered solution.
The solution or mixture was administered to the tested animals intravenously or subcutaneously and, after 1 week, the number of surviving animals was calculated.

Enterobacter cloacae P99 = assay: Antibacterial activity, MIC by Agar dilution method, standard test strain 19; type: cell-based; details: P99, 18 h
Method: as §1, §2, §3
19. Enterobacter cloacae P99

Escherichia coli 1507E = assay: Antibacterial activity, MIC by Agar dilution method, standard test strain 11; type: cell-based
Method: as §1, §2, §3

[2] = tested on: Klebsiella aerogenes 1522E; assay: Antibacterial activity, MIC by Agar dilution method, standard test strain 18; type: cell-based; details: Klebsiella aerogenes 1522E; 10^7 CFU/ml, 37° C., 18 hours; read-out: MIC
Method: as §1, §2, §3
18. Klebsiella aerogenes 1522E

Staphyloccus aureus 285 = assay: Antibacterial activity, MIC by Agar dilution method, standard test strain 5; type: cell-based; details: 10^7 CFU/ml, 37° C., 18 hours
Method: as §1, §2, §3
5. Staphyloccus aureus 285

[3] = tested on: Streptococcus pyogenes A 77; assay: Antibacterial activity, MIC by Agar dilution method, standard test strain 2; type: cell-based; details: A77, 10^7 CFU/ml, 37° C., 18 hours
Method: as §1, §2, §3
2. Streptococcus pyogenes A 77

Escherichia coli DC O = assay: Antibacterial activity, MIC by Agar dilution method, standard test strain 8; type: cell-based; details: Escherichia coli DC O; 10^7 CFU/ml, 37° C., 18 hours; read-out: MIC
Method: as §1, §2, §3

[4] = tested on: Gram-positive strains as well as Gram-negative strains including Pseudomonas; assay: Antibacterial activity (summary in words); type: cell-based; details: Gram-positive and Gram-negative strains
Method: as §1, §2

[5] = tested on: Pseudomonas aeruginosa 9027; assay: Antibacterial activity, MIC by Agar dilution method, standard test strain 12; type: cell-based; details: 10^7 CFU/ml, 37° C., 18 hours
Method: as §1, §2, §3
12. Pseudomonas aeruginosa 9027

[6] = tested on: Enterobacter cloacae 1321E; assay: Antibacterial activity, MIC by Agar dilution method, standard test strain 20; type: cell-based
Method: as §1, §2, §3
20. Enterobacter cloacae 1321E

[7] = tested on: Pseudomonas aeruginosa 1592E; assay: Antibacterial activity, MIC by Agar dilution method, standard test strain 13; type: cell-based; details: 10^7 CFU/ml, 37° C., 18 hours
Method: as §1, §2, §3
13. Pseudomonas aeruginosa 1592E

Salmonella typhimurium = assay: Antibacterial activity, MIC by Agar dilution method, standard test strain 16; type: cell-based; details: Salmonella enterica, 10^7 CFU/ml, 37° C., 18 hours
Method: as §1, §2, §3
16. Salmonella typhimurium

[8] = tested on: Streptococcus pyogenes A 308; assay: Antibacterial activity, MIC by Agar dilution method, standard test strain 1; type: cell-based; details: A308, 10^7 CFU/ml, 37° C., 18 hours
Method: as §1, §2, §3
1. Streptococcus pyogenes A 308

[9] = tested on: Pseudomonas aeruginosa 1771; assay: Antibacterial activity, MIC by Agar dilution method, standard test strain 14; type: cell-based; details: 10^7 CFU/ml, 37° C., 18 hours
Method: as §1, §2, §3
14. Pseudomonas aeruginosa 1771

Escherichia coli TEM = assay: Antibacterial activity, MIC by Agar dilution method, standard test strain 10; type: cell-based
Method: as §1, §2, §3

Klebsiella oxytoca 1082E = assay: Antibacterial activity, MIC by Agar dilution method, standard test strain 17; type: cell-based; details: 10^7 CFU/ml, 37° C., 18 hours
Method: as §1, §2, §3

Escherichia coli O 55 = assay: Antibacterial activity, MIC by Agar dilution method, standard test strain 7; type: cell-based
Method: as §1, §2, §3

Escherichia coli DC 2 = assay: Antibacterial activity, MIC by Agar dilution method, standard test strain 9; type: cell-based; details: DC2; Escherichia coli DC 2; 10^7 CFU/ml, 37° C., 18 hours; read-out: MIC
Method: as §1, §2, §3

[10] = tested on: Pseudomonas aeruginosa 1771M; assay: Antibacterial activity, MIC by Agar dilution method, standard test strain 15; type: cell-based; details: 18 h
Method: as §1, §2, §3
15. Pseudomonas aeruginosa 1771M

[11] = tested on: Staphylococcus aureus SG 511; assay: Antibacterial activity, MIC by Agar dilution method, standard test strain 4; type: cell-based; details: SG511, 10^7 CFU/ml, 37° C., 18 hours
Method: as §1, §2, §3
4. Staphylococcus aureus SG 511

[12] = tested on: Streptococcus faecium MD 86; assay: Antibacterial activity, MIC by Agar dilution method, standard test strain 3; type: cell-based; details: Enterococcus faecium, MD86, 10^7 CFU/ml, 37° C., 18 hours
Method: as §1, §2, §3
3. Streptococcus faecium MD 86

[13] = sc, Subcutaneous administration
[14] = Escherichia coli 1507E, 10^7 CFU/ml, 37° C., 18 hours, read-out: MIC
[15] = Enterobacter cloacae 1321E, 10^7 CFU/ml, 37° C., 18 hours, read-out: MIC
[16] = Escherichia coli TEM, 10^7 CFU/ml, 37° C., 18 hours, read-out: MIC
[17] = O55, Escherichia coli O 55, 10^7 CFU/ml, 37° C., 18 hours, read-out: MIC

| SMILES | MIC [1] [µg/mL] | MIC (Enterobacter cloacae P99) [µg/mL] | MIC (Escherichia coli 1507E; [14]) [µg/mL] | MIC [2] [µg/mL] | MIC (Staphyloccus aureus 285) [µg/mL] | MIC [3] [µg/mL] | MIC (Escherichia coli DC O) [µg/mL] | antibacterial activity (in words) [4] | MIC [5] [µg/mL] | MIC [7] [µg/mL] | MIC (Salmonella typhimurium) [µg/mL] | MIC [8] [µg/mL] | MIC [9] [µg/mL] | MIC (Klebsiella oxytoca 1082E) [µg/mL] | MIC (Escherichia coli DC 2) [µg/mL] | MIC [10] [µg/mL] | MIC [11] [µg/mL] | MIC [12] [µg/mL] | MIC [6, 15] [µg/mL] | MIC (Escherichia coli TEM; [16]) [µg/mL] | also measured |
| --- | --- | --- | --- | --- | --- | --- | --- | --- | --- | --- | --- | --- | --- | --- | --- | --- | --- | --- | --- | --- | --- |
| CO/N=C(\C(=O)N[C@@H]1C(=O)N2C(C(=O)[O-])=C(C[n+]3cn(N)cn3)CS[C@H]12)c1csc(N)n1 [Example 12, (6R,7R)-7-[(Z)-2-(2-aminothiazol-4-yl)-2-methoxyiminoacetamido]-3-[(4-amino-1,2,4-triazol-2-ium)methyl]-ceph-3-em-4-carboxylate] | 0.781 (≈ 1.63 µM) | 100 (≈ 209 µM) | 0.098 (≈ 0.204 µM) | 0.049 (≈ 0.102 µM) | 3.12 (≈ 6.52 µM) | 0.007 (≈ 0.0146 µM) | 0.098 (≈ 0.204 µM) | excellent antibacterial activity | 12.5 (≈ 26.1 µM) | 6.25 (≈ 13 µM) | 0.098 (≈ 0.204 µM) | 0.007 (≈ 0.0146 µM) | 6.25 (≈ 13 µM) | 1.56 (≈ 3.26 µM) | 0.097 (≈ 0.202 µM) | 0.195 (≈ 0.407 µM) | 1.56 (≈ 3.26 µM) | > 100 |  |  | LD50 at 168 h (Acute toxcity test; [13]): > 6000 mg/kg; LD50 at 168 h (Acute toxcity test; Intravenous administration): > 4000 mg/kg; MIC ([6]; Enterobacter cloacae, 1321E, 18 h): 0.025 µg/mL (≈ 0.0521 µM); MIC (Escherichia coli TEM; Escherichia coli, 18 h): 0.049 µg/mL (≈ 0.102 µM); MIC (Escherichia coli O 55; Escherichia coli, O55, 18 h): 0.025 µg/mL (≈ 0.0521 µM) |
| CO/N=C(\C(=O)N[C@@H]1C(=O)N2C(C(=O)[O-])=C(C[n+]3cn(N)c4ccccc43)CS[C@H]12)c1csc(N)n1 [Example 19, (6R,7R)-7-[(Z)-2-(2-aminothiazol-4-yl)-2-methoxyiminoacetamido]-3-[(1-aminobenzimidazol-3-ium)methyl]-ceph-3-em-4-carboxylate] | 0.391 (≈ 0.74 µM) | > 100 | 0.391 (≈ 0.74 µM) | 0.195 (≈ 0.369 µM) | 0.781 (≈ 1.48 µM) | 0.007 (≈ 0.0132 µM) | 0.391 (≈ 0.74 µM) | excellent antibacterial activity | 50 (≈ 94.6 µM) | 25 (≈ 47.3 µM) | 0.195 (≈ 0.369 µM) | 0.013 (≈ 0.0246 µM) | 12.5 (≈ 23.6 µM) | 3.12 (≈ 5.91 µM) | 0.391 (≈ 0.74 µM) | 0.781 (≈ 1.48 µM) | 0.781 (≈ 1.48 µM) | > 100 | 0.195 (≈ 0.369 µM) | 0.391 (≈ 0.74 µM) | MIC (Escherichia coli O 55; Escherichia coli, O55, 18 h): 0.098 µg/mL (≈ 0.185 µM) |
| CC(C)(O/N=C(\C(=O)N[C@@H]1C(=O)N2C(C(=O)[O-])=C(C[n+]3cn(N)cn3)CS[C@H]12)c1csc(N)n1)C(=O)O [Example 36, (6R,7R)-7-[(Z)-2-(2-aminothiazol-4-yl)-2-(2-carboxyprop-2-oxyimino)acetamido]-3-[(4-amino-1,2,4-triazol-2-ium)methyl]-ceph-3-em-4-carboxylate] | 1.56 (≈ 2.83 µM) | 100 (≈ 181 µM) |  | 0.781 (≈ 1.42 µM) | 3.12 (≈ 5.67 µM) | 0.049 (≈ 0.0888 µM) | 0.781 (≈ 1.42 µM) | excellent antibacterial activity | 6.25 (≈ 11.3 µM) | 6.25 (≈ 11.3 µM) | 6.25 (≈ 11.3 µM) | 0.098 (≈ 0.178 µM) | 1.56 (≈ 2.83 µM) | 100 (≈ 181 µM) | 0.195 (≈ 0.354 µM) | 0.098 (≈ 0.178 µM) | 1.56 (≈ 2.83 µM) | 25 (≈ 45.3 µM) | 0.391 (≈ 0.709 µM) | 3.12 (≈ 5.67 µM) | LD50 at 168 h (Acute toxcity test; [13]): > 6000 mg/kg; LD50 at 168 h (Acute toxcity test; Intravenous administration): > 4000 mg/kg; MIC (Escherichia coli 1507E; Escherichia coli, 1507E, 18 h): 1.56 µg/mL (≈ 2.83 µM); MIC (Escherichia coli O 55; [17]): 0.195 µg/mL (≈ 0.354 µM) |
| CO/N=C(\C(=O)N[C@@H]1C(=O)N2C(C(=O)[O-])=C(C[n+]3nn(N)c4ccccc43)CS[C@H]12)c1nsc(N)n1 [Example 85, (6R,7R)-7-[(Z)-2-(5-amino-1,2,4-thiadiazol-3-yl)-2-methoxyiminoacetamido]-3-[(1-aminobenzotriazol-3-ium)methyl]-ceph-3-em-4-carboxylate] | 0.391 (≈ 0.737 µM) | 25 (≈ 47.1 µM) | 0.049 (≈ 0.0924 µM) | 0.049 (≈ 0.0924 µM) | 1.56 (≈ 2.95 µM) | 0.004 (≈ 0.00754 µM) | 0.025 (≈ 0.0471 µM) |  | 3.12 (≈ 5.89 µM) | 3.12 (≈ 5.89 µM) | 0.195 (≈ 0.368 µM) | 0.007 (≈ 0.0132 µM) | 1.56 (≈ 2.95 µM) | 0.781 (≈ 1.47 µM) | 0.025 (≈ 0.0471 µM) | 1.56 (≈ 2.95 µM) | 0.391 (≈ 0.737 µM) | 100 (≈ 188 µM) | 0.007 (≈ 0.0132 µM) | 0.025 (≈ 0.0471 µM) | MIC (Escherichia coli O 55; [17]): 0.007 µg/mL (≈ 0.0132 µM) |
